According to ChEMBL document CHEMBL4043078, “Biological evaluation of pyridone alkaloids on the endocannabinoid system” (Bioorg Med Chem, 2017):
Active and inactive are the calls of the source. The calls are words filed in the database; no cut-off is given here.

Legend:
[1] = target: T1, Monoacylglycerol lipase ABHD6 (Mus musculus) (UniProt Q8R2Y0); experiment: Inhibition of ABHD6 in mouse BV2 cells preincubated for 30 mins and subsequent addition of [3H]-2-OG substrate measured after 15 mins by liquid scintillation counting method; type: cell-based
T1 sequence (whole entry): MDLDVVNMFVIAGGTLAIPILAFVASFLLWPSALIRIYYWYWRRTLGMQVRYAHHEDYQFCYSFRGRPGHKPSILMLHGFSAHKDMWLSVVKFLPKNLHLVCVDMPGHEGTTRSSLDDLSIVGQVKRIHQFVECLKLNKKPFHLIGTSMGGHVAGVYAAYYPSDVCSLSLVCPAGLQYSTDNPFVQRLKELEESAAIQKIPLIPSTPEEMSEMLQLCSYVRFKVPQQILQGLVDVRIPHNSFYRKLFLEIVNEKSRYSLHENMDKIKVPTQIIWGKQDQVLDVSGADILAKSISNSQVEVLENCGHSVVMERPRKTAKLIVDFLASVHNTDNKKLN

[2] = Inhibition of MAGL in pig brain homogenates using [3H]2-OG as substrate after 15 mins by liquid scintillation counting method; type: tissue-based, Sus scrofa
Cannabinoid receptor 1 [3] = target: T2, Cannabinoid receptor 1 (Homo sapiens, UniProt P21554); experiment: Displacement of [3H]CP55,940 from human CB1 receptor expressed in CHOK1 cell membranes after 2 hrs by liquid scintillation counting method
[4] = target: T3, Fatty-acid amide hydrolase 1 (Homo sapiens) (UniProt O00519); experiment: Inhibition of FAAH in human U937 cells assessed as decrease in [ethanolamine-1-3H]AEA uptake at 10 uM preincubated for 2 mins followed by AEA addition after 5 mins by liquid scintillation counting method; type: cell-based
T3 sequence (whole entry): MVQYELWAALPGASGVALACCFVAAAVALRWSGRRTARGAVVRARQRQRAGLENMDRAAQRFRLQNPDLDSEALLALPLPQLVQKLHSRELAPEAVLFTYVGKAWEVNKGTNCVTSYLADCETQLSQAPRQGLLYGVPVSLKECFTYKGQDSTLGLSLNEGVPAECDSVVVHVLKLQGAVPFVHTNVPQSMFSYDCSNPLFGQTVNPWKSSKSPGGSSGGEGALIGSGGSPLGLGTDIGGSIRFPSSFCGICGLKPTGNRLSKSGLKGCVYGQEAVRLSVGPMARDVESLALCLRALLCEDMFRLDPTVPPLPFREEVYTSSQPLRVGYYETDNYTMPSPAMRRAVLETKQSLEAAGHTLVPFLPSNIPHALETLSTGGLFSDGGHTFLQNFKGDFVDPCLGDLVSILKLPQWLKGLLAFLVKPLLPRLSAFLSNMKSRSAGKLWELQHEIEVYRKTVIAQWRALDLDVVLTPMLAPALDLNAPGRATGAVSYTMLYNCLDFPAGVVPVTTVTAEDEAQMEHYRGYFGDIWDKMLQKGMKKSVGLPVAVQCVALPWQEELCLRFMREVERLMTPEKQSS

[5] = target: T4, Fatty-acid amide hydrolase 1 (Homo sapiens, UniProt O00519); experiment: Inhibition of FAAH in human U937 cells assessed as decrease in [ethanolamine-1-3H]AEA uptake preincubated for 2 mins followed by AEA addition after 5 mins by liquid scintillation counting method; type: cell-based
T4 sequence (O00519 whole entry): T3 sequence (whole entry)

Sus scrofa = species on record: Sus scrofa; experiment: Inhibition of MAGL in pig brain homogenates using [3H]2-OG as substrate at 10 uM after 15 mins in presence of URB597 by liquid scintillation counting method; type: tissue-based
[6] = target: T3, Fatty-acid amide hydrolase 1 (Homo sapiens); experiment: Inhibition of FAAH in human U937 cells using [ethanolamine-1-3H]AEA as substrate at 10 uM after 15 mins by liquid scintillation counting method relative to control; type: cell-based
Cannabinoid receptor 2 [7] = target: T5, Cannabinoid receptor 2 (Homo sapiens, UniProt P34972); experiment: Displacement of [3H]CP55,940 from human CB2 receptor expressed in CHOK1 cell membranes after 2 hrs by liquid scintillation counting method
Cannabinoid receptor 1 [8] = target: T2, Cannabinoid receptor 1; experiment: Displacement of [3H]CP55,940 from human CB1 receptor expressed in CHOK1 cell membranes at 1 uM after 2 hrs by liquid scintillation counting method relative to control
[9] = target: T4, Fatty-acid amide hydrolase 1; experiment: Inhibition of FAAH in human U937 cells using [ethanolamine-1-3H]AEA as substrate after 15 mins by liquid scintillation counting method; type: cell-based
[10] = target: T6, Lysophosphatidylserine lipase ABHD12 (Mus musculus) (UniProt Q99LR1); experiment: Inhibition of ABHD12 in mouse BV2 cells preincubated for 30 mins and subsequent addition of [3H]-2-OG substrate measured after 15 mins by liquid scintillation counting method; type: cell-based
T6 sequence (whole entry): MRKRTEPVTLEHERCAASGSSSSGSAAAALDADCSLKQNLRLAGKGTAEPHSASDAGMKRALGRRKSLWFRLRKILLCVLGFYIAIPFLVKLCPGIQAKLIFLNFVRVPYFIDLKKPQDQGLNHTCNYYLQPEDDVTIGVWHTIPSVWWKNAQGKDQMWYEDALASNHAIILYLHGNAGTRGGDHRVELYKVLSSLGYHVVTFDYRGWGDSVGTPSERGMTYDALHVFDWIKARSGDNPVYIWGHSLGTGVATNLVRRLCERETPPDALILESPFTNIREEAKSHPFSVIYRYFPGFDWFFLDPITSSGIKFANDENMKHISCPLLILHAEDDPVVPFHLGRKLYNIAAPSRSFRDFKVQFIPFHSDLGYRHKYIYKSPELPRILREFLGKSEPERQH

Cannabinoid receptor 2 [11] = target: T5, Cannabinoid receptor 2; experiment: Displacement of [3H]CP55,940 from human CB2 receptor expressed in CHOK1 cell membranes at 1 uM after 2 hrs by liquid scintillation counting method relative to control
[12] = target: T7, Prostaglandin G/H synthase 2 (Homo sapiens, UniProt P35354); experiment: Inhibition of recombinant human COX2 preincubated for 15 mins followed by arachidonic acid/2-OG substrate addition after 5 mins by ADHP probe-based fluorescence assay
T7 sequence (P35354 whole entry): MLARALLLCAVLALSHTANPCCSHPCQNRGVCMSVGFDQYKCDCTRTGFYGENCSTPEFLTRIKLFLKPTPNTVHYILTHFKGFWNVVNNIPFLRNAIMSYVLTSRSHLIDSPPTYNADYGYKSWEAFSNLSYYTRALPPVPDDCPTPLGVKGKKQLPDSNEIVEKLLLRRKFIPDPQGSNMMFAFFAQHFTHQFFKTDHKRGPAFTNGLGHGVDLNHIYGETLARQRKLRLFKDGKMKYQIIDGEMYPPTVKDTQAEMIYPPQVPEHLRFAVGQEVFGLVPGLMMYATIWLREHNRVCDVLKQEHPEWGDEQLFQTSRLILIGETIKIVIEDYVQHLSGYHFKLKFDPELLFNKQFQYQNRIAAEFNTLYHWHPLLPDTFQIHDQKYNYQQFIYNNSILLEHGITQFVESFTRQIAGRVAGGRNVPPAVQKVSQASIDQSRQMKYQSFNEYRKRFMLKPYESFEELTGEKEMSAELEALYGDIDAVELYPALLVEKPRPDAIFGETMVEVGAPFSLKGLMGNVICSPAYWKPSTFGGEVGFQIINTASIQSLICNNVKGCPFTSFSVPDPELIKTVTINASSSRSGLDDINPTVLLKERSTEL

T5 sequence (P34972 whole entry): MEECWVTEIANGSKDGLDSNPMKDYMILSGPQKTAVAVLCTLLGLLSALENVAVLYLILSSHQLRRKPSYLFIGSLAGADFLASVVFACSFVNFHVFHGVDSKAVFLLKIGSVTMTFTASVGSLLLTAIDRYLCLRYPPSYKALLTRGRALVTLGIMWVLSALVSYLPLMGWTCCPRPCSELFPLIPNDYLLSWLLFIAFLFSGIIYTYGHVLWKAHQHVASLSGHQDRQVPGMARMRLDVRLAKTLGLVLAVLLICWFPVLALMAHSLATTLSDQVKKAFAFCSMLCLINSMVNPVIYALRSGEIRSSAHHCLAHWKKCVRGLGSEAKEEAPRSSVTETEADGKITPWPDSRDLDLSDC
T2 sequence (P21554 whole entry): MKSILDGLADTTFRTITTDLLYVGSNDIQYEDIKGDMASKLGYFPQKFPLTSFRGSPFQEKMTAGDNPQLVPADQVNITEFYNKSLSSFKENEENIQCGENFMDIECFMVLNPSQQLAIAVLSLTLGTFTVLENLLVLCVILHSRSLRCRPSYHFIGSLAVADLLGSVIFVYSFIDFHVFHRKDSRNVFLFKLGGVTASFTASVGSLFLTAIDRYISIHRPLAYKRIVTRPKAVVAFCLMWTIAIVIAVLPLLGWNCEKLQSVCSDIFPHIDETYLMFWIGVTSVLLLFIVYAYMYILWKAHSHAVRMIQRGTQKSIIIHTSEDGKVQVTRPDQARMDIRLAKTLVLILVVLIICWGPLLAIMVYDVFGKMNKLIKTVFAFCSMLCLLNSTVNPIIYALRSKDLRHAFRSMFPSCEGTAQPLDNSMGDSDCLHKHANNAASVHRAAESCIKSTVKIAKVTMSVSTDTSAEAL

## CCCCCCCCCCCC(=O)c1c(O)c(-c2ccc(O)cc2)c[nH]c1=O
[1]
  inhibition: inactive
[2]
  IC50: > 10 µM
Cannabinoid receptor 1 [3]
  Ki: 1 µM
[4]
  inhibition: Active
[5]
  IC50: 0.8 µM
Sus scrofa
  inhibition: inactive
[6]
  inhibition: 40 to 50%
Cannabinoid receptor 2 [7]
  Ki: > 1 µM
Cannabinoid receptor 1 [8]
  inhibition: 50%
[9]
  IC50: 4.6 µM
[10]
  inhibition: inactive
Cannabinoid receptor 2 [11]
  inhibition: inactive
[12]
  IC50: > 10 µM

## CCCCCCCC(=O)c1c(O)c(-c2ccc(O)cc2)c[nH]c1=O
[1]
  inhibition: inactive
[2]
  IC50: > 10 µM
Cannabinoid receptor 1 [3]
  Ki: > 1 µM
[4]
  inhibition: Active
[5]
  IC50: 0.7 µM
Sus scrofa
  inhibition: inactive
[6]
  inhibition: 80%
Cannabinoid receptor 2 [7]
  Ki: > 1 µM
Cannabinoid receptor 1 [8]
  inhibition: < 20%
[9]
  IC50: > 10 µM
[10]
  inhibition: inactive
Cannabinoid receptor 2 [11]
  inhibition: < 20%
[12]
  IC50: > 10 µM

## C=CCCCOC(=O)c1c(O)c(-c2ccc(O)cc2)c[nH]c1=O
[1]
  inhibition: inactive
[4]
  inhibition: inactive
Sus scrofa
  inhibition: inactive
Cannabinoid receptor 1 [8]
  inhibition: < 20%
[10]
  inhibition: inactive
Cannabinoid receptor 2 [11]
  inhibition: < 20%

## CCCCCCCCCCC[C@@H](C[C@@H]1OC(=O)[C@H]1CCCCCC)OC(=O)[C@H](CC(C)C)NC=O
[1]
  inhibition: Active
[10]
  inhibition: Active

## CCC(C)/C=C(C)/C=C/C=C/C(=O)c1c(OC)c(-c2ccc(O)cc2)c[nH]c1=O (stereo not given)
[1]
  inhibition: inactive
[4]
  inhibition: Active
Sus scrofa
  inhibition: inactive
Cannabinoid receptor 1 [8]
  inhibition: < 20%
[10]
  inhibition: inactive
Cannabinoid receptor 2 [11]
  inhibition: < 20%

## CCC(/C=C(C)/C=C/C(=O)c1c(O)c(-c2ccc(O)cc2)c[nH]c1=O)CO (stereo not given)
[1]
  inhibition: inactive
[4]
  inhibition: inactive
Sus scrofa
  inhibition: inactive
Cannabinoid receptor 1 [8]
  inhibition: < 20%
[10]
  inhibition: inactive
Cannabinoid receptor 2 [11]
  inhibition: < 20%

## NC(=O)c1cccc(-c2cccc(OC(=O)NC3CCCCC3)c2)c1
[1]
  inhibition: inactive
Sus scrofa
  inhibition: inactive
[10]
  inhibition: inactive

## CCCCCCCCCCOC(=O)c1c(O)c(-c2ccc(O)cc2)c[nH]c1=O
[1]
  inhibition: inactive
[2]
  IC50: > 10 µM
Cannabinoid receptor 1 [3]
  Ki: > 1 µM
[4]
  inhibition: Active
[5]
  IC50: 0.6 µM
Sus scrofa
  inhibition: inactive
[6]
  inhibition: 40 to 50%
Cannabinoid receptor 2 [7]
  Ki: > 1 µM
Cannabinoid receptor 1 [8]
  inhibition: < 20%
[9]
  IC50: > 10 µM
[10]
  inhibition: inactive
Cannabinoid receptor 2 [11]
  inhibition: < 20%
[12]
  IC50: > 10 µM

## CCC(/C=C/C=C/C=C/C(=O)c1c(O)c(-c2ccc(O)cc2)c[nH]c1=O)CO (stereo not given)
[1]
  inhibition: inactive
[4]
  inhibition: inactive
Sus scrofa
  inhibition: inactive
Cannabinoid receptor 1 [8]
  inhibition: < 20%
[10]
  inhibition: inactive
Cannabinoid receptor 2 [11]
  inhibition: < 20%

## CC[C@@H](C)/C=C(C)/C=C/C(=O)c1c(O)c(-c2ccc(O)cc2)c[nH]c1=O
[1]
  inhibition: inactive
[4]
  inhibition: Active
Sus scrofa
  inhibition: inactive
Cannabinoid receptor 1 [8]
  inhibition: 40%
[10]
  inhibition: inactive

## CN(Cc1cccc(-c2ccncc2)c1)C(=O)Oc1ccc(-c2ccc(C(N)=O)cc2)cc1
[1]
  inhibition: Active
[10]
  inhibition: Active

## CCC(C)/C=C(C)/C=C/C=C/C=C/C(=O)c1c(O)c(-c2ccc(O)cc2)c[nH]c1=O (stereo not given) [FARINOSONE A]
[1]
  inhibition: inactive
[2]
  IC50: > 10 µM
Cannabinoid receptor 1 [3]
  Ki: > 1 µM
[4]
  inhibition: Active
[5]
  IC50: 1.2 µM
Sus scrofa
  inhibition: inactive
Cannabinoid receptor 2 [7]
  Ki: > 1 µM
Cannabinoid receptor 1 [8]
  inhibition: < 20%
[9]
  IC50: > 10 µM
[10]
  inhibition: inactive
Cannabinoid receptor 2 [11]
  inhibition: < 20%
[12]
  IC50: > 10 µM

## CCC(C)CC(C)/C=C(C)/C=C/C=C/C(=O)c1c(O)c(-c2ccc(O)cc2)c[nH]c1=O (stereo not given)
[1]
  inhibition: inactive
[4]
  inhibition: Active
Sus scrofa
  inhibition: inactive
[6]
  inhibition: 40 to 50%
Cannabinoid receptor 1 [8]
  inhibition: < 20%
[10]
  inhibition: inactive
Cannabinoid receptor 2 [11]
  inhibition: < 20%

## CCC(C)CC(C)/C=C(C)/C=C/C(=O)c1c(O)c(-c2ccc(O)cc2)c[nH]c1=O (stereo not given)
[1]
  inhibition: inactive
[4]
  inhibition: inactive
Sus scrofa
  inhibition: inactive
Cannabinoid receptor 1 [8]
  inhibition: 40%
[10]
  inhibition: inactive

## CCCCCCCCCCCCCCCCCC(=O)c1c(O)c(-c2ccc(O)cc2)c[nH]c1=O
[1]
  inhibition: inactive
[2]
  IC50: > 10 µM
Cannabinoid receptor 1 [3]
  Ki: > 1 µM
[4]
  inhibition: inactive
[5]
  IC50: > 10 µM
Sus scrofa
  inhibition: inactive
Cannabinoid receptor 2 [7]
  Ki: > 1 µM
Cannabinoid receptor 1 [8]
  inhibition: < 20%
[9]
  IC50: > 10 µM
[10]
  inhibition: inactive
Cannabinoid receptor 2 [11]
  inhibition: < 20%
[12]
  IC50: > 10 µM

## O=C(Oc1ccc([N+](=O)[O-])cc1)N1CCC(C(O)(c2ccc3c(c2)OCO3)c2ccc3c(c2)OCO3)CC1
[1]
  inhibition: inactive
Sus scrofa
  inhibition: inactive
[10]
  inhibition: inactive

## CCC(C)/C=C(C)/C=C/C=C/C(=O)c1c(O)c(-c2ccc(O)cc2)c[nH]c1=O (stereo not given)
[1]
  inhibition: inactive
[4]
  inhibition: inactive
Sus scrofa
  inhibition: inactive
Cannabinoid receptor 1 [8]
  inhibition: < 20%
[10]
  inhibition: inactive
Cannabinoid receptor 2 [11]
  inhibition: < 20%
